Where two headings read alike, the source gives them in different places.
Legend:
HBV = assay: In vitro antiviral assay: anti-HBV replication in HepAD38 cells (extracellular HBV DNA by QPCR); type: cell-based, hepatitis B virus (genotype D, serotype ayw); conditions: Hepatitis B virus
Experimental: The anti-HBV activity of the Capsid Assembly Modulators (CAMs) was evaluated in a cell based assay utilizing the human hepatoma cell line HepAD38 (Ladner, S K., et al., 1998). HepAD38 cells were derived from the parental line, HepG2, that were stably transfected with a construct containing an HBV genome (genotype D, serotype ayw) under the control of a tetracycline repressible CMV promoter. Upon removal of tetracycline, viral pre-genomic RNA (pgRNA) and mRNAs are expressed and infectious viral particles are assembled and secreted into the culture medium providing a reliable, robust system to measure multiple steps of the HBV life cycle. Disruption of capsid formation results in reduced levels of DNA-containing virus particles that are released into the culture supernatant. To quantify the effect of CAMs on HBV replication, we developed a sensitive QPCR-based assay that measures extracellular HBV DNA levels upon treatment of HepAD38 cells with various concentrations of test compounds.
HepAD38 cells were maintained in DMEM/F12 medium containing 10% FBS, 400 μg/mL G418 and 0.3 μg/mL tetracycline (tet+ media) to maintain repression of HBV replication. To evaluate each compound, HepAD38 cells were seeded into 24-well collagen coated culture plates (Corning BioCoat) at a density of 200,000 cells per well in 1 mL of medium without tetracycline (tet-media) and allowed to adhere overnight at 37° C., 5% CO2 in a humidified incubator. The following day, media was refreshed and a dose range of each compound was prepared by performing 1 log10 serial dilutions in 100% DMSO at 200× the desired assay concentration. Dilutions were then added to the cells resulting in a final dose range of 1 μM to 10 pM and the plates were returned to the incubator. Following 7 days of incubation, culture supernatants were harvested and HBV DNA levels were evaluated by QPCR and compared to the vehicle treated control wells (i.e. DMSO alone).
To quantify HBV DNA levels, cell culture supernatants were diluted 1:10 in sterile, nuclease-free water (Gibco). The diluted supernatants were subsequently added to a PCR master mix containing 1× Roche Light Cycler Master Mix, 0.5 μM forward primer, 0.5 μM reverse primer (Fwd: 5′-[…] (SEQ ID NO 1); Rev: 5′-[…] (SEQ ID NO 2)), 0.2 μM Roche Universal Probe Library Probe 25. The volume was brought to 20 μL with nuclease-free water and amplification of the HBV target sequence was performed using a Roche LightCycler 480 QPCR instrument. PCR extended out to 45 cycles with each cycle consisting of a denaturation step at 95° C. for 10 sec., followed by an annealing step at 60° C. for 10 sec. and a brief extension step at 72° C. for 1 sec.
Extracellular HBV DNA levels, expressed in copies/mL, were determined by comparison to a standard curve (10^2-10^9 copies/mL) using the Roche LightCycler analysis software. These values were subsequently converted to percent inhibition of HBV replication by dividing the HBV DNA levels in the experimental samples with those obtained from the vehicle control (˜1-2×10^5 copies/mL). Potency, expressed as an EC50 (the effective concentration required to inhibit 50% of HBV replication), was calculated from the dose-response curve using a 4-parameter non-linear regression analysis (GraphPad Prism). The nucleoside analog inhibitor entecavir was used as a positive control to validate each assay run. The EC50 value of entecavir in the HepAD38 assay was 0.5 nM, as previously reported in the literature.

[1] = In vitro cytotoxicity assay (MTT cell viability) in HepG2 cells; type: cell-based, human; conditions: human
Experimental: To evaluate antiviral selectivity, the cytotoxic activity of each compound was determined using a standard cell viability assay performed on the parental HepG2 cell line. Cell viability was determined by measuring the conversion of 3-(4,5-dimethylthiazol-2-yl)-2,5-diphenyltetrazolium bromide (MTT) to the insoluble formazan salt crystal that occurs in live cells. Briefly, HepG2 cells were seeded in 96-well plates at a density of 20,000 cells per well in […] (complete growth medium) and allowed to adhere overnight in a 37° C., […] humidified incubator. The next day, test agents were prepared by performing 8 half-log10 serial dilutions in 100% DMSO at 200× the final desired concentration in the assay. Compounds were tested over a range of concentrations from 30 μM to 1.0 nM in the assay. HepG2 cells were incubated in the presence of various concentrations of CAMs for 7 days in a 37° C., […] humidified incubator. At the completion of the 7-day incubation period, MTT reagent was added to each well and the mixture was incubated for an additional 3-4 hours. At the completion of the incubation period, all wells were aspirated to remove the culture medium. The formazan crystals were solubilized from the cell monolayers with 100% DMSO. Plates were briefly mixed on an orbital shaker and absorbance was measured at 492 nm using a Perkin-Elmer EnVision multi-label plate reader. All absorbance values were converted to a percentage of the signal obtained from the vehicle treated controls. Absorbance values at 492 nm are directly proportional to the number of viable cells present in the sample. A CC50 value (cytotoxic concentration that results in loss of 50% cell viability) was calculated from the dose-response curve by 4-parameter, non-linear regression analysis using the GraphPad Prism software. The positive control compound, staurosporine, reduced the viability of HepG2 cells in a dose-dependent manner (CC50=100 nM).

[2] = HePAD38, 168 h, 7 days incubation, extracellular HBV DNA by QPCR, read-out: Anti-HBV EC50

For `Cc1cc(NC(=O)c2c(C)c(C(=O)C(=O)N[C@@H]3CC[C@H](O)CC3(C)C)n(C)c2C)ccc1F` (single isomer, unassigned) [Example 142], the EC50 (HBV; [2]) was less than 0.05 µM and the CC50 at 7 days [1] was greater than 30 µM.

With `Cc1cc(NC(=O)c2c(C)c(C(=O)C(=O)N[C@@H]3CC[C@@H](O)CC3(C)C)n(C)c2C)ccc1F` (single isomer, unassigned) [Example 143] the EC50 (HBV; [2]) was less than 0.05 µM and the CC50 at 7 days [1] was greater than 30 µM.

For `Cc1cc(NC(=O)c2c(C)c(C(=O)C(=O)N[C@H]3CC[C@@H](S(C)(=O)=O)CC3)n(C)c2C)ccc1F` [Example 1, N-(4-fluoro-3-methylphenyl)-1,2,4-trimethyl-5-(2-(((1s,4s)-4-(methylsulfonyl)cyclohexyl)amino)-2-oxoacetyl)-1H-pyrrole-3-carboxamide], the EC50 (HBV; [2]) was less than 0.05 µM and the CC50 at 7 days [1] was greater than 30 µM.

`Cc1c(C(=O)Nc2cc(Cl)nc(Cl)c2)c(C)n(C)c1C(=O)C(=O)N[C@H]1CC[C@@H](O)CC1` [Example 2, N-(2,6-dichloropyridin-4-yl)-5-(2-(((1s,4s)-4-hydroxycyclohexyl)amino)-2-oxoacetyl)-1,2,4-trimethyl-1H-pyrrole-3-carboxamide] showed an EC50 (HBV; [2]) of less than 0.05 µM and a CC50 at 7 days [1] greater than 30 µM.

Compound `Cc1cc(NC(=O)c2c(C)c(C(=O)C(=O)N[C@]3(C4CC4)CC[C@@H](O)CC3)n(C)c2C)ccc1F` [Example 3, 5-(2-(((1r,4r)-1-cyclopropyl-4-hydroxycyclohexyl)amino)-2-oxoacetyl)-N-(4-fluoro-3-methylphenyl)-1,2,4-trimethyl-1H-pyrrole-3-carboxamide] has an EC50 (HBV; [2]) of less than 0.05 µM and a CC50 at 7 days [1] greater than 30 µM.

Compound `CC[C@]1(NC(=O)C(=O)c2c(C)c(C(=O)Nc3ccc(F)c(C)c3)c(C)n2C)CC[C@H](O)CC1` [Example 4, 5-(2-(((1r,4r)-1-ethyl-4-hydroxycyclohexyl)amino)-2-oxoacetyl)-N-(4-fluoro-3-methylphenyl)-1,2,4-trimethyl-1H-pyrrole-3-carboxamide] has an EC50 (HBV; [2]) of less than 0.05 µM and a CC50 at 7 days [1] greater than 30 µM.

Work on `CC[C@]1(NC(=O)C(=O)c2c(C)c(C(=O)Nc3ccc(F)c(C)c3)c(C)n2C)CC[C@@H](O)CC1` [Example 5, 5-(2-(((1s,4s)-1-ethyl-4-hydroxycyclohexyl)amino)-2-oxoacetyl)-N-(4-fluoro-3-methylphenyl)-1,2,4-trimethyl-1H-pyrrole-3-carboxamide] yielded an EC50 (HBV; [2]) of less than 0.05 µM and a CC50 at 7 days [1] greater than 30 µM.

Work on `Cc1cc(NC(=O)c2c(C)c(C(=O)C(=O)N[C@]3(C4CC4)CC[C@H](O)CC3)n(C)c2C)ccc1F` [Example 6, 5-(2-(((1s,4s)-1-cyclopropyl-4-hydroxycyclohexyl)amino)-2-oxoacetyl)-N-(4-fluoro-3-methylphenyl)-1,2,4-trimethyl-1H-pyrrole-3-carboxamide] yielded an EC50 (HBV; [2]) of less than 0.05 µM and a CC50 at 7 days [1] greater than 30 µM.

Compound `CCc1c(C(=O)Nc2ccc(F)c(C)c2)c(C)n(C)c1C(=O)C(=O)N[C@]1(C)CC[C@H](O)CC1` [Example 7, 4-ethyl-N-(4-fluoro-3-methylphenyl)-5-(2-(((1s,4s)-4-hydroxy-1-methylcyclohexyl)amino)-2-oxoacetyl)-1,2-dimethyl-1H-pyrrole-3-carboxamide] has an EC50 (HBV; [2]) of less than 0.05 µM and a CC50 at 7 days [1] greater than 30 µM.

Work on `Cc1cc(NC(=O)c2c(C)c(C(=O)C(=O)N[C@H]3CC[C@H](S(C)(=O)=O)CC3)n(C)c2C)ccc1F` [Example 8, N-(4-fluoro-3-methylphenyl)-1,2,4-trimethyl-5-(2-(((1r,4r)-4-(methylsulfonyl)cyclohexyl)amino)-2-oxoacetyl)-1H-pyrrole-3-carboxamide] yielded an EC50 (HBV; [2]) of less than 0.05 µM and a CC50 at 7 days [1] of 5 to 30 µM.

For `Cc1c(C(=O)Nc2cc(Cl)nc(Cl)c2)c(C)n(C)c1C(=O)C(=O)N[C@]1(C)CC[C@@H](O)CC1` [Example 9, N-(2,6-dichloropyridin-4-yl)-5-(2-(((1r,4r)-4-hydroxy-1-methylcyclohexyl)amino)-2-oxoacetyl)-1,2,4-trimethyl-1H-pyrrole-3-carboxamide], the EC50 (HBV; [2]) was less than 0.05 µM and the CC50 at 7 days [1] was greater than 30 µM.

For `Cc1c(C(=O)Nc2cc(Cl)cc(Cl)c2)c(C)n(C)c1C(=O)C(=O)N[C@H]1CC[C@@H](O)CC1` [Example 10, N-(3,5-dichlorophenyl)-5-(2-(((1s,4s)-4-hydroxycyclohexyl)amino)-2-oxoacetyl)-1,2,4-trimethyl-1H-pyrrole-3-carboxamide], the EC50 (HBV; [2]) was less than 0.05 µM and the CC50 at 7 days [1] was 5 to 30 µM.

`Cc1c(C(=O)Nc2cc(Cl)nc(Cl)c2)c(C)n(C)c1C(=O)C(=O)N[C@]1(C)CC[C@H](O)CC1` [Example 11, N-(2,6-dichloropyridin-4-yl)-5-(2-(((1s,4s)-4-hydroxy-1-methylcyclohexyl)amino)-2-oxoacetyl)-1,2,4-trimethyl-1H-pyrrole-3-carboxamide] gave an EC50 (HBV; [2]) of less than 0.05 µM and a CC50 at 7 days [1] greater than 30 µM.

With `Cc1c(C(=O)Nc2cccc(Cl)n2)c(C)n(C)c1C(=O)C(=O)N[C@H]1CC[C@@H](O)CC1` [Example 12, N-(6-chloropyridin-2-yl)-5-(2-(((1s,4s)-4-hydroxycyclohexyl)amino)-2-oxoacetyl)-1,2,4-trimethyl-1H-pyrrole-3-carboxamide] the EC50 (HBV; [2]) was 0.05 to 0.499 µM and the CC50 at 7 days [1] was greater than 30 µM.

In the case of `Cc1cc(NC(=O)c2c(C)c(C(=O)C(=O)N[C@H]3CCCC(F)(F)[C@@H]3O)n(C)c2C)ccc1F` [Example 13, 5-(2-(((1S,2R)-3,3-difluoro-2-hydroxycyclohexyl)amino)-2-oxoacetyl)-N-(4-fluoro-3-methylphenyl)-1,2,4-trimethyl-1H-pyrrole-3-carboxamide], the EC50 (HBV; [2]) is reported as less than 0.05 µM and the CC50 at 7 days [1] is reported as greater than 30 µM.

Work on `Cc1cc(NC(=O)c2c(C)c(C(=O)C(=O)N[C@@H]3CC[C@@H](O)C[C@@H]3F)n(C)c2C)ccc1F` [Example 14, N-(4-fluoro-3-methylphenyl)-5-(2-(((1R,2S,4R)-2-fluoro-4-hydroxycyclohexyl)amino)-2-oxoacetyl)-1,2,4-trimethyl-1H-pyrrole-3-carboxamide] yielded an EC50 (HBV; [2]) of less than 0.05 µM and a CC50 at 7 days [1] greater than 30 µM.

Work on `Cc1cc(NC(=O)c2c(C)c(C(=O)C(=O)N[C@@H]3CC[C@H](O)C[C@H]3F)n(C)c2C)ccc1F` [Example 15, N-(4-fluoro-3-methylphenyl)-5-(2-(((1R,2R,4S)-2-fluoro-4-hydroxycyclohexyl)amino)-2-oxoacetyl)-1,2,4-trimethyl-1H-pyrrole-3-carboxamide] yielded an EC50 (HBV; [2]) of less than 0.05 µM and a CC50 at 7 days [1] greater than 30 µM.

Compound `C=C1[C@H](CO)[C@@H](O)C[C@@H]1n1cnc2c(=O)[nH]c(N)nc21` [entecavir, reference compound] has an EC50 (HBV; HePAD38, positive control, read-out: EC50 in the HepAD38 assay) of 0.0005 µM.

Work on `CN[C@@H]1C[C@H]2O[C@@](C)([C@@H]1OC)n1c3ccccc3c3c4c(c5c6ccccc6n2c5c31)C(=O)NC4` [staurosporine, reference compound] yielded a CC50 at 7 days ([1]; positive control, HepG2 cells, MTT, read-out: CC50 (viability of HepG2 cells)) of 0.1 µM.
